Source: patent publication US7214495B2, “Screening method” (Takeda Pharmaceutical Company Limited, priority 2002, dated 2007)

Columns and labels:
[1] = tested on: mouse GPR40-GFP fusion protein; experiment: Expression of mouse GPR40-GFP fusion protein in CHO cells after siRNA introduction (enzyme immunoassay); type: cell-based; conditions: siRNA 2.86 pmols/0.5 μl or 8.57 pmols/1.5 μl, one day
Method: Mouse GPR40-GFP fusion protein-expressed CHO cells prepared by publicly known methods were plated in a 96-well plate at a density of 3×10^4/well, followed by incubation for a day. The siRNA (Dharmacon, Inc.) having various sequences, which was prepared according to the report by Elbasir et al. (Nature 411 (6836), 494–498 (2001)) using HVJ Envelope VECTOR KIT GenomONE™ (Ishihara Sangyo Kaisha, LTD.), was introduced into the cells (in a concentration of 2.86 pmols/0.5 μl or 8.57 pmols/1.5 μl), incubation followed for further one day. The expression level of mouse GPR40-GFP was detected by enzyme immunoassay as shown below. After the culture supernatant was discarded and the cells were washed with HBSS (Invitrogen), the cells were immobilized on 0.01% glutaraldehyde (Wako Pure Chemical) for 5 minutes, followed by blocking with 2% BSA-containing PBS (Takara Shuzo). Anti-GFP monoclonal antibody 3E6 (Nippon Gene) diluted to 500-fold was added to the cells. After incubation at room temperature for 2 hours, the cells were washed and HRP-labeled anti-mouse IgG antibody (ICN) diluted to 500-fold was added thereto followed by incubation at room temperature for 2 hours. After washing, TMB Microwell peroxidase substrate (Funakoshi) was added to the cells. After incubation for 30 minutes, sulfuric acid was added to stop the color-forming reaction and absorbance was measured at 450 nm.

mouse GPR40 mRNA = experiment: Mouse GPR40 mRNA expression in MIN6 after siRNA introduction; type: cell-based; conditions: 2 days after introduction; vs random sequence siRNA
Method: MIN6 cells were plated in a 24-well plate and incubated for a day. Based on the method of EXAMPLE 18, m40i103 or Scramble II duplex siRNA, which was a random sequence siRNA, was then introduced using HVJ Envelope VECTOR KIT GenomONE. After incubation for 2 days, the total RNA of the same cells was prepared in a manner similar to EXAMPLE 7, using Isogen (Nippon Gene K. K.), following the manual attached. Using as a primer 100 ng of random hexamer based on 1 μg of the resulting total RNA, cDNA was synthesized using SuperScriptII reverse transcriptase (Invitrogen, Inc.), which was lysed in 40 μl of TE buffer (pH 8.0). The expression levels of mouse GPR40 and mouse GAPDH mRNA were determined by the method described in EXAMPLE 4.

What does the source list for “m40i103: mouse GPR40-specific siRNA; sense strand SEQ ID NO: 34, antisense strand SEQ ID NO: 35 (sense CGCCAGUUGUGACAUUCUUNN; antisense NNGCGGUCAACACUGUAAGAA; chemistry not given here; one strand is listed 3' to 5')”?
expression level of GPR40-GFP (absorbance at 450 nm) [1]: reduction in the expression level; expression of GPR40 mRNA (GPR40/GAPDH) in MIN6 (mouse GPR40 mRNA): decreased
